These results are taken from US20120016009A1, “Optimized Methods For Delivery Of DSRNA Targeting The PCSK9 Gene” (priority 2008, published 2012).

For the series, the system named is PCSK9 mRNA. The experiment in a line: PCSK9 siRNA screening in HepG2 cells (lipofectamine 2000 transfection, PCSK9 mRNA by Quantigene, normalized to GAP-DH). Type of series: cell-based, human. To be noted: for Mean percent remaining mRNA transcript at siRNA concentration/in cell type 30 nM/HepG2: 30 nM siRNA; for Mean percent remaining mRNA transcript at siRNA concentration/in cell type 3 nM/HepG2: 3 nM siRNA. The method, boiled down:
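PCSK9 silencing was assessed in HepG2 cells by lipofectamine 2000 siRNA transfection in 96-well plates. Twenty-four hours later, lysates were analyzed with the Quantigene Explore Kit, with PCSK9 signal normalized to GAP-DH. Eight datapoints were collected per siRNA, and remaining transcript was expressed as a percentage of cells treated with an unrelated control siRNA duplex.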

In the oligonucleotide strings, read from the 5' end, every base follows the letter of its sugar. An asterisk marks phosphorothioate; unmarked linkages are phosphodiester. Other units and linkages are bracketed, terminal groups are in braces. A string of capitals states the bases alone. d = 2'-deoxy (DNA); m = 2'-O-methyl; r = 2'-OH (RNA)

“AD-9672: PCSK9 siRNA (sense mUrArGmCmCmUmUrGmCrGmUmUmCmCrGrArGrGrAdT*dT; antisense rUrCrCrUrCrGrGrArArCrGmCrArArGrGrCmUrAdT*dT)”: the “Mean percent remaining mRNA transcript at siRNA concentration/in cell type 30 nM/HepG2” value stood at 57%. For “AD-9673: PCSK9 siRNA (sense mCmUmCrGmCrArGmUmCrArGrArGmCrGmCrAmCmUdT*dT; antisense rArGrUrGrCrGrCrUrCrUrGrArCrUrGrCrGrArGdT*dT)”, the “Mean percent remaining mRNA transcript at siRNA concentration/in cell type 3 nM/HepG2” value is listed as 57% and the “Mean percent remaining mRNA transcript at siRNA concentration/in cell type 30 nM/HepG2” value is on record as 56%. As to “AD-9674: PCSK9 siRNA (sense rGmCrArGmUmCrArGrArGmCrGmCrAmCmUrGmCmCdT*dT; antisense rGrGmCrArGrUrGrCrGrCrUrCrUrGrArCrUrGrCdT*dT)”, the “Mean percent remaining mRNA transcript at siRNA concentration/in cell type 3 nM/HepG2” value is 57% and the “Mean percent remaining mRNA transcript at siRNA concentration/in cell type 30 nM/HepG2” value is recorded as 36%. In the case of “AD-9675: PCSK9 siRNA (sense rGrGrGmCmCmCrAmCrArAmCrGmCmUmUmUmUrGrGdT*dT; antisense rCmCrArArArArGrCrGrUrUrGrUrGrGrGrCrCrCdT*dT)”, the “Mean percent remaining mRNA transcript at siRNA concentration/in cell type 30 nM/HepG2” value is given as 78%.

For the substance “AD-9676: PCSK9 siRNA (sense rGrArGrGrGmUrGmUmCmUrAmCrGmCmCrAmUmUrGdT*dT; antisense mCrArArUrGrGrCrGmUrArGrAmCrArCrCrCrUrCdT*dT)”, the “Mean percent remaining mRNA transcript at siRNA concentration/in cell type 30 nM/HepG2” value was determined as 100%.

“AD-9677: PCSK9 siRNA (sense UGGCGGGUGGGUACAGCCGTT; antisense CGGCUGUACCCACCCGCCATT; chemistry not given here)”: the “Mean percent remaining mRNA transcript at siRNA concentration/in cell type 30 nM/HepG2” value was found to be 62%. The same measure, in the same setting: in the case of “AD-9678: PCSK9 siRNA (sense rArGrGrArGmCrAmUrGrGrArAmUmCmCmCrGrGmCdT*dT; antisense rGrCrCrGrGrGrArUrUrCmCrArUrGrCrUrCrCrUdT*dT)” it was 76%; in that of “AD-9681: PCSK9 siRNA (sense rGmUmCrArGrGrArGmCmCrGrGrGrAmCrGmUmCrAdT*dT; antisense rUrGrArCrGrUrCrCrCrGrGrCrUrCrCrUrGrArCdT*dT)”, 55%; in that of “AD-9682: PCSK9 siRNA (sense uGGuGGAGGuGuAucuccuTsT; antisense AGGAGAuAcACCUCcACcATsT; as printed in the source, key not given here)”, 38%. As to “AD-9683: PCSK9 siRNA (sense mCmCrAmCmCrGrGrGrArArAmUmCrGrArGrGrGmCdT*dT; antisense rGrCrCrCrUrCrGrArUrUrUrCrCrCrGrGrUrGrGdT*dT)”, the “Mean percent remaining mRNA transcript at siRNA concentration/in cell type 30 nM/HepG2” value worked out at 48%. On to “AD-9684: PCSK9 siRNA (sense mUrAmUmCmUmUmUmUrGrGrGmUmCmUrGmUmCmCmUdT*dT; antisense rArGrGrAmCrArGrArCrCmCrArArArArGrAmUrAdT*dT)”, for which the “Mean percent remaining mRNA transcript at siRNA concentration/in cell type 30 nM/HepG2” value came out at 63%. “AD-9685: PCSK9 siRNA (sense rGmUrGrAmCmCrAmCmCrGrGrGrArArAmUmCrGrAdT*dT; antisense rUrCrGrArUrUrUrCrCrCrGrGrUrGrGrUmCrArCdT*dT)”: the “Mean percent remaining mRNA transcript at siRNA concentration/in cell type 30 nM/HepG2” value worked out at 77%. For “AD-9686: PCSK9 siRNA (sense rGrArGmUmUmUrAmUmUmCrGrGrArArArArGmCmCdT*dT; antisense rGrGrCrUrUrUrUrCrCrGrArAmUrArArArCrUrCdT*dT)”, the “Mean percent remaining mRNA transcript at siRNA concentration/in cell type 30 nM/HepG2” value turned out to be 111%. As to “AD-9687: PCSK9 siRNA (sense rGrAmCrAmCmCrArGmCrAmUrAmCrArGrArGmUrGdT*dT; antisense mCrArCrUrCrUrGmUrArUrGrCrUrGrGrUrGrUrCdT*dT)”, the “Mean percent remaining mRNA transcript at siRNA concentration/in cell type 30 nM/HepG2” value turned out to be 84%.
